Assay results as given in patent US20220323402A1, “TREATMENT, AMELIORATION OR PREVENTION OF A VIRAL INFECTION” (priority 2019, published 2022).

Experiments:
[1] = tested on: ZIKV (Puerto Rico strain, PRVABC59); test: Flow cytometry quantification of HepG2 cells positive for Flavivirus antigen after ZIKV infection; assay type: cell-based, Zika virus; settings: HepG2, ZIKV PRVABC59 moi=1, 48 h, pre-treated; FIG. 7C
Experimental: FIGS. 7A-7K: AHR signaling boosts ZIKV replication in vitro. Flow cytometry quantification of HepG2 cells positive for Flavivirus antigen. HepG2 cells were pre-treated with different concentrations of I3S, CH223191 or DMSO (vehicle) and infected with ZIKV (moi=1) for 48 h. Plots shown are representative of one experiment. Bar graphs (FIG. 7C) represent the mean+s.e.m. of Flavivirus antigen positive cells from at least three independent experiments. P values were determined by a one-way ANOVA followed by Tukey's post-hoc test.
(§1) Stock solutions of I3S and CH223191 were prepared in DMSO, aliquoted and stored according to manufacturer's instructions. For CH223191, cells were pre-treated for 90 minutes and then used for further studies. For I3S, cells were pre-treated overnight.
Cells were fixed and permeabilized using Cytofix/Cytoperm (BD Biosciences). Secondary antibody for flow cytometry was phycoerythrin (PE) goat anti-mouse IgG (BD Biosciences) at a concentration of 1:200. Cells were analyzed on a Guava easyCyte flow cytometer and data was processed using FlowJo software.

ZIKV = test: Infectious virus particles in supernatants of ZIKV-infected HepG2 cells, standard plaque assay in Vero cells; assay type: cell-based, Zika virus
Experimental: FIG. 8: Quantification of infectious virus particles in the supernatants of HepG2 cells pre-treated with CH2213191 or vehicle-treated using a standard plaque assay in Vero cells. Data represent the mean+s.e.m. from three independent experiments. P values were determined by a one-way ANOVA followed by Tukey's post-hoc test.
FIG. 14: Quantification of infectious virus particles in the supernatants of HepG2 cells 48 h p.i. after infection with ZIKV INEVH116141 (Argentina) using a standard plaque assay in Vero cells. Data represent the mean+s.e.m. from three independent experiments. P values were determined by a one-way ANOVA followed by Tukey's post-hoc test.
FIG. 15: Quantification of infectious virus particles in the supernatants of HepG2 cells 48 h p.i. after infection with ZIKV BeH815744 (Brazil) using a standard plaque assay in Vero cells. Data represent the mean+s.e.m. from three independent experiments. P values were determined by a one-way ANOVA followed by Tukey's post-hoc test.
FIG. 16: Quantification of infectious virus particles in the supernatants of HepG2 cells 48 h p.i. after infection with ZIKV MR 766 (Uganda) using a standard plaque assay in Vero cells. Data represent the mean+s.e.m. from three independent experiments. P values were determined by a one-way ANOVA followed by Tukey's post-hoc test.
as §1
C6/36 mosquito cells were infected at a multiplicity of infection of 1 with ZIKV Puerto Rico strain (PRVABC59, ATCC isolate gift from MIT laboratory); viral isolate from Argentina (INEVH116141) provided by Instituto Nacional de Enfermedades Virales Humanas, Pergamino, Argentina, ZIKV Brazil (BeH815744) gene bank accession number KU365780.1 gently provided by Prof. José Luiz Proença Modena and Daniele Durigon and the reference ZIKV strain from Uganda (MR766), respectively, for 1 h at 37° C. in serum-free DMEM. Quantification of viral titers was performed by a standard plaque assay in Vero cells.

Pml promoter = test: ChIP analysis of AHR and NF-κB binding sites in the Pml promoter, ZIKV-infected HepG2 cells; assay type: cell-based, human; settings: 48 h p.i., FIGS. 26A-26D
Experimental: FIGS. 26A-26D: ChIP analysis of AHR (FIGS. 26A-26C) and NF-KB (FIG. 26D) binding sites in the Pml promoter. 48 h p.i. cells were fixed and ChIP was performed using AHR and NF-KB-specific antibodies or non-specific IgG. Data are mean+s.e.m. and are representative of two independent experiments.
FIG. 27: ChIP analysis of AHR binding to site 2 in Pml promoter. 48 h p.i. cells were fixed and ChIP was performed using AHR and NF-KB-specific antibodies or non-specific IgG. Data are mean+s.e.m. and are representative of two independent experiments
HepG2 cells were mock-infected or infected with ZIKV. 48 h p.i. protein-DNA complexes were cross-linked using 1% paraformaldehyde and lysed with 350 μl lysis buffer (1% SDS, 10 mM EDTA, 50 mM Tris-HCl, pH 8.1 and 1× protease inhibitor cocktail). Chromatin was sheared by sonication, supernatants were collected after centrifugation and diluted in ChIP incubation buffer (1% Triton X-100, 2 mM EDTA, 150 mM NaCl, 20 mM Tris-HCl, pH 8). 5 μg of antibody (anti-AHR or anti-NF-κB p65) was prebound to protein A- and protein G-Dynal magnetic beads (Invitrogen, USA) for 6 h with rotation at 4° C., washed three times with ice-cold 1% BSA in PBS, and finally added to the diluted chromatin. […] DNA fragments were purified with a QIAquick DNA purification kit (Qiagen, USA) and analyzed using the SYBR Green real-time PCR kit (Takara Bio Inc., USA). […]

Cell cultures = test: Cell viability by MTT assay; assay type: cell-based; settings: at the concentrations tested; FIGS. 9A-9B
Experimental: FIGS. 9A and 9B: Toxicity of I3S and CH223191. Cell viability after treatment for 24 h with different concentrations of I3S (FIG. 9A) and CH223191 (FIG. 9B) evaluated by MTT assay.
Cell cultures grown in 96-well plates were exposed for 48 h to serial two-fold compound dilutions, three wells for each concentration and viability was measured with 3-(4,5-dimethylthiazol-2-yl)-2,5-diphenyl tetrazolium bromide (MTT, Sigma-Aldrich).

Cc1ccccc1/N=N/c1ccc(NC(=O)c2ccnn2C)c(C)c1 [CH223191, 2-Methyl-2H-pyrazole-3-carboxylic Acid (2-methyl-4-o-tolylazo-phenyl)-amide]
reduction of ZIKV replication, HepG2 cells expressing viral antigen [1]: more than 50% | replication of ZIKV isolate from Argentina (INEVH116141) (ZIKV; HepG2, 48 h p.i., FIG. 14): suppressed | replication of ZIKV isolate from Brazil (BeH815744) (ZIKV; HepG2, 48 h p.i., FIG. 15): suppressed | replication of reference ZIKV strain from Uganda (MR 766) (ZIKV; HepG2, 48 h p.i., FIG. 16): suppressed | reduction of ZIKV replication, infective virus particles released in HepG2 cell culture supernatants (ZIKV; HepG2, ZIKV PRVABC59, FIG. 8): more than 50% | AHR recruitment to its responsive elements in the Pml promoter (Pml promoter): decreased | recruitment of NF-κB to its responsive element in the Pml promoter (Pml promoter): increased | cytotoxic effects (Cell cultures): no cytotoxic effects were detected
